This is an account of results in patent publication US20010053758A1, “Methods and compositions for the treatment and prevention of lung disease” (priority 1999, published 2001).

The target in one test is T1, RARβ (Homo sapiens, UniProt P10826).
T1 sequence (P10826 1-455): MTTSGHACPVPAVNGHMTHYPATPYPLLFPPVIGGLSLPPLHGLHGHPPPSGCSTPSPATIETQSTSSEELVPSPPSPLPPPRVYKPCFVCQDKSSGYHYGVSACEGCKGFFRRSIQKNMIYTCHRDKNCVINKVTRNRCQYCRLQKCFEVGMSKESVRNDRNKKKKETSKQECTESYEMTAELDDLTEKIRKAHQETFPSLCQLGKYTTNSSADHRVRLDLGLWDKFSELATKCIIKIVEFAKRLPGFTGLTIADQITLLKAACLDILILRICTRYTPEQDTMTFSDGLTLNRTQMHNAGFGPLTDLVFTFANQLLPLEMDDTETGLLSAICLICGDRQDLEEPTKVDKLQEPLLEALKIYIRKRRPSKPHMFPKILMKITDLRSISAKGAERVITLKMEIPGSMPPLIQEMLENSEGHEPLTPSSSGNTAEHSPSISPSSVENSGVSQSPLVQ
Kind of test: RAR receptor activity as stated for the retinoid ligand. The following applies: ligand specific to RAR receptors and not to RXR receptors. From the text: Likewise, methods of screening candidate compounds for Specific RAR modulating activity is routine and well-known in the art. For example, U.S. Pat. No. 5,455,265, incorporated by reference herein, describes a chimeric receptor transactivation assay which tests for RAR-agonist activity in the RAR-α, RAR-β, RAR-γ, RXR-α receptor subtypes. Briefly, this assay employs chimeric proteins containing an RAR ligand-binding domain and a heterologous polypeptide segment having the ability to bind to a response element (RE), in turn facilitating transcription of a specific, measurable target gene, such as chloramphenicol acetyltransferase (CAT). Only an agonist of the given RAR isotype whose ligand binding domain comprises part of the chimeric protein will permit the activation of CAT transcription and expression. […] For example, those ligands able to stimulate CAT synthesis when used in combination with chimeric proteins having RAR binding domains, but not those having RXR ligand binding domains, will be RAR specific agonists.

Test [1] has as its system alveolus formation (septation) in rat lung. The test can be described thus: Alveolus formation in newborn rat pups injected intraperitoneally daily (lung histology and morphometry). The test is classed as in vivo, Sprague-Dawley rat. From the text:
The expression of the RARβ receptor has been associated in certain cases with diminished cell replication. Following the initial injection, the rat pups were subjected to identical daily injections until day 13. A set of rat pups were sacrificed at day 4 and at […] by anesthesia with phenobarbitol sodium and scission of the abdominal aorta. Following sacrifice, rat lungs were fixed and histological sections prepared essentially as described in Massaro et al., Am. J. Physiol. 270: L305 (1996), incorporated by reference herein. The histological sections were viewed and photographs taken under light microscopy.
The differences in alveolar dimensions between treated and untreated rat pups were so pronounced, they were quantitated by measuring the distance between alveolar walls (Lm) and the surface-to-volume ratio (S/V) of the gas-exchange structures (septa). The Lm in cottonseed oil-treated rats was 80 μm±2.8 μm (N=4) compared to 110 μm±7.3 μm (N=3) in RARβ agonist-treated rats (N=3; P=0.03 by Mann Whitney nonparametric analysis). The S/V was 504 μm^−1±18 μm^−1 (N=4) in cottonseed oil-treated rats compared to 365 μm^−1±23 μm^−1 (N=3) in RARβ agonist-treated rats (P=0.03).

Test [2] deals with alveolus formation in newborn rat lung. To be noted: newborn rats; cited from earlier work.
Test [3] concerns elastase-induced destruction of alveolar walls. The following applies: elastase-treated rats; cited from earlier work.

For `CC1(C)CC=C(c2cccs2)c2cc(C#Cc3ccc(C(=O)O)cc3)ccc21` [AGN 193174], the receptor activity entry on RARβ is given as “RARβ agonist activity”. For the same molecule, the “histological sections: alveolar size and degree of septation” value in test [1] (age 14 days, treated daily from age 3 through 13 days, versus cottonseed oil alone (FIGS. 1A and 1B)) was “alveoli were larger, and the degree of sepatation less”. The “distance between alveolar walls (Lm)” value in test [1] (rat pups, 500 micrograms per kg i.p. daily from age 3 to 13 days, age 14 days, N=3, cottonseed oil control 80 μm±2.8 μm, P=0.03) was 110 μm. Moreover, the “surface-to-volume ratio (S/V) of the gas-exchange structures” value in test [1] (rat pups, 500 micrograms per kg i.p. daily from age 3 to 13 days, N=3, cottonseed oil control 504 μm^−1±18 μm^−1, P=0.03) was 365 μm^−1. For the same molecule, in test [1] (rat pups, 500 micrograms per kg i.p. daily from age 3 to 13 days, cottonseed oil control 634 cm^2 ±9 cm^2, P=0.03), the surface area is reported as 492 cm^2. The Lung volume entry in test [1] (treated rats versus cottonseed oil-treated rats) is “the same in both rat groups”.

`CC1=C(/C=C/C(C)=C/C=C/C(C)=C/C(=O)O)C(C)(C)CCC1` [all-trans-retinoic acid]: the “effect on number of alveoli” value in test [2] was “induced the formation of an increased number of alveoli in rats without enlarging the lung”. Further, in test [3], the “effect on elastase-induced alveolar wall destruction” value is “appeared to reverse this destruction”.
